This passage reports TGI and GI50 results from PubChem BioAssay (NCI).

Among the test systems are 786-0 renal; CCRF-CEM leukemia; DU-145 prostate; HCC-2998 colon; IGROV1 ovarian; MCF7 breast; OVCAR-4 ovarian; OVCAR-5 ovarian; SF-539 CNS; SK-MEL-2 melanoma; SNB-75 CNS; SW-620 colon; UO-31 renal.
Experiment in all cases: inhibition of tumour cell growth, NCI panel, 48 h

“And” between values parts separate entries of the source, which are not always exact repeats. Equal entries are not always repeated.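 96-well plates; 48 h exposure; 5 concentrations. Endpoints by linear interpolation between flanking doses. Not reached: highest tested concentration assigned. At the GI50, growth is halved. TGI is the concentration that stops growth completely.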

On to `Brc1ccc(C2CC3(c4ccccc4)ON=C(c4ccccc4)N3c3ccccc3S2)cc1` (stereo not drawn), for which the TGI in the assay on 786-0 renal, with CCRF-CEM leukemia, with DU-145 prostate, with HCC-2998 colon, in the assay with IGROV1 ovarian and in the assay with MCF7 breast was greater than 100 µM throughout. Further, the TGI in the assay on OVCAR-4 ovarian, with OVCAR-5 ovarian, in the assay on SF-539 CNS, with SK-MEL-2 melanoma, in the assay on SNB-75 CNS and in the assay on SW-620 colon was greater than 100 µM throughout. For the same compound, in the assay on UO-31 renal, the TGI was greater than 100 µM.

Turning to `COC(=O)C1SC[C@H]2C(=O)N(c3ccccc3)C(=O)N12` (stereo partly drawn), the TGI in the assay with 786-0 renal, in the assay on CCRF-CEM leukemia, with DU-145 prostate, with HCC-2998 colon, in the assay on IGROV1 ovarian and with MCF7 breast was greater than 100 µM in each case. The TGI in the assay with OVCAR-4 ovarian, in the assay on OVCAR-5 ovarian, with SF-539 CNS, with SK-MEL-2 melanoma, with SNB-75 CNS and in the assay with SW-620 colon was greater than 100 µM throughout. In addition, in the assay with UO-31 renal, the TGI was greater than 100 µM.

For `Cc1c(C#N)c(N)n(C2OC(CO)C(O)C(O)C2O)c(=S)c1C#N` (stereo not drawn), the TGI in the assay on 786-0 renal, in the assay on CCRF-CEM leukemia, in the assay on DU-145 prostate, in the assay on HCC-2998 colon, in the assay with IGROV1 ovarian and in the assay with MCF7 breast was greater than 100 µM each time. The TGI in the assay on OVCAR-4 ovarian, in the assay on OVCAR-5 ovarian, in the assay on SF-539 CNS, with SK-MEL-2 melanoma, with SNB-75 CNS and with SW-620 colon was greater than 100 µM in each case. In the assay with UO-31 renal, this compound showed a TGI greater than 100 µM. Moreover, the GI50 in the assay with SK-MEL-2 melanoma is 28.8 µM and > 100 µM.

In the case of `CCOc1cc(/C=C2\N=C(c3ccccc3)N(c3nc4ccccc4s3)C2=O)ccc1O`, the TGI with 786-0 renal was greater than 100 µM; with CCRF-CEM leukemia, greater than 100 µM; with DU-145 prostate, greater than 100 µM; in the assay with HCC-2998 colon, 97.3 µM; with IGROV1 ovarian it was greater than 100 µM; in the assay on MCF7 breast, greater than 100 µM. In addition, the TGI is greater than 100 µM in the assay on OVCAR-4 ovarian; greater than 100 µM in the assay on OVCAR-5 ovarian; greater than 100 µM with SF-539 CNS; 62.1 µM with SK-MEL-2 melanoma; greater than 100 µM in the assay with SNB-75 CNS; greater than 100 µM in the assay on SW-620 colon. In the assay with UO-31 renal, this compound had a TGI greater than 100 µM.

On to `Cc1ccc(NC(=S)N=Nc2c(O)[nH]c3ccccc23)cc1`, for which the TGI with 786-0 renal, in the assay on CCRF-CEM leukemia, with DU-145 prostate, in the assay with HCC-2998 colon, in the assay with IGROV1 ovarian and with MCF7 breast was greater than 100 µM each time. Besides, the TGI in the assay on OVCAR-4 ovarian, in the assay with OVCAR-5 ovarian, in the assay on SF-539 CNS, in the assay with SK-MEL-2 melanoma, in the assay on SNB-75 CNS and in the assay on SW-620 colon was greater than 100 µM in each case. The compound further gave a TGI in the assay with UO-31 renal greater than 100 µM.

As to `O=P(O)(O)CC1OC(CO)C(O)C1O` (stereo not drawn), the TGI in the assay with 786-0 renal, in the assay with CCRF-CEM leukemia, with DU-145 prostate, in the assay on HCC-2998 colon, in the assay with IGROV1 ovarian and with MCF7 breast was greater than 100 µM in each case. Also, the TGI in the assay with OVCAR-4 ovarian, in the assay on OVCAR-5 ovarian, in the assay with SF-539 CNS, with SK-MEL-2 melanoma, in the assay on SNB-75 CNS and with SW-620 colon was greater than 100 µM throughout. This compound had a TGI with UO-31 renal greater than 100 µM.

Turning to `CNC(=O)OCC1=C(COC(=O)NC)C(C)N(c2ccccc2)C1` (stereo not drawn), the TGI in the assay on 786-0 renal was greater than 100 µM; in the assay with CCRF-CEM leukemia, greater than 100 µM; in the assay on DU-145 prostate, greater than 100 µM; with HCC-2998 colon, 80.3 µM; in the assay on IGROV1 ovarian, 98.4 µM; in the assay on MCF7 breast it was 58.3 µM. Besides, the TGI in the assay on OVCAR-4 ovarian was greater than 100 µM; in the assay with OVCAR-5 ovarian, 91.9 µM; in the assay with SF-539 CNS, 67.3 µM; in the assay on SK-MEL-2 melanoma, 70.6 µM; with SNB-75 CNS it was 94.5 µM; in the assay with SW-620 colon, greater than 100 µM. This compound had a TGI with UO-31 renal greater than 100 µM.

As for `COC1C(OC(C)=O)CC(=O)OC(C)C/C=C/C=C\C(O)C(C)CC(CC=O)C1OC1OC(C)C(OC2CC(C)(O)C(OC(=O)CC(C)C)C(C)O2)C(N(C)C)C1O` (stereo not drawn), the TGI with 786-0 renal, in the assay with CCRF-CEM leukemia, with DU-145 prostate, with HCC-2998 colon, in the assay on IGROV1 ovarian and with MCF7 breast was greater than 100 µM in each case. In addition, the TGI in the assay on OVCAR-4 ovarian, with OVCAR-5 ovarian, in the assay with SF-539 CNS, with SK-MEL-2 melanoma, in the assay on SNB-75 CNS and in the assay with SW-620 colon was greater than 100 µM in each case. Besides, in the assay with UO-31 renal, the TGI was greater than 100 µM.

In the case of `COc1cc(OC2OC(CO)C(O)C(O)C2O)c2c(c1)O[C@@H]1[C@H](O)Oc3cc(OC)c(OC)cc3[C@]1(O)C2=O` (stereo partly drawn), the TGI in the assay with 786-0 renal, with CCRF-CEM leukemia, in the assay with DU-145 prostate, with HCC-2998 colon, in the assay on IGROV1 ovarian and with MCF7 breast was greater than 25 µM each time. Also, the TGI in the assay with OVCAR-4 ovarian, in the assay on OVCAR-5 ovarian, in the assay with SF-539 CNS, in the assay on SK-MEL-2 melanoma, in the assay on SNB-75 CNS and in the assay with SW-620 colon was greater than 25 µM each time. Also, the TGI in the assay on UO-31 renal was greater than 25 µM.

`COC(=O)[C@]1(Cc2ccc3ccccc3c2)CCCCCCN1C(=O)c1ccccc1`: the TGI in the assay on 786-0 renal was greater than 53.2 µM; in the assay on CCRF-CEM leukemia it was greater than 53.7 µM; in the assay with DU-145 prostate it was greater than 68.1 µM; in the assay on HCC-2998 colon it was greater than 49 µM; in the assay on IGROV1 ovarian it was greater than 58.2 µM; with MCF7 breast, greater than 49.1 µM. In addition, the TGI is 26 µM with OVCAR-4 ovarian; greater than 65 µM in the assay with OVCAR-5 ovarian; greater than 54.1 µM in the assay on SF-539 CNS; 25.9 µM in the assay on SK-MEL-2 melanoma; 54.7 µM in the assay on SNB-75 CNS; greater than 60.3 µM in the assay with SW-620 colon. Besides, the TGI in the assay on UO-31 renal is greater than 39.9 µM.

As to `CCN(CCCl)c1cc(CN(C)C)cc(NC(=O)c2ccc(C(=O)Nc3ccccc3)cc2)c1`, the TGI in the assay with 786-0 renal came out at 0.581 µM; in the assay with CCRF-CEM leukemia, 1.14 µM; in the assay on DU-145 prostate, 6.92 µM; with HCC-2998 colon it was 2.51 µM; with IGROV1 ovarian, 0.448 µM; with MCF7 breast it was 2.79 µM. Besides, the TGI with OVCAR-4 ovarian is 1.87 µM; in the assay with OVCAR-5 ovarian it was 4.5 µM; in the assay on SF-539 CNS, 2.26 µM; in the assay with SK-MEL-2 melanoma it was 0.519 µM; in the assay on SNB-75 CNS, 4.13 µM; in the assay on SW-620 colon it was 0.339 µM. Also, the TGI with UO-31 renal amounted to 4.4 µM.

On to `COc1ccc(-c2nc(SC)n(C3OC(COC(C)=O)C(OC(C)=O)C(OC(C)=O)C3OC(C)=O)c(=O)c2C#N)cc1` (stereo not drawn), for which the TGI in the assay on 786-0 renal, in the assay with CCRF-CEM leukemia, in the assay with DU-145 prostate, in the assay with HCC-2998 colon, with IGROV1 ovarian and in the assay on MCF7 breast was greater than 100 µM in each case. Also, the TGI was greater than 100 µM in the assay on OVCAR-4 ovarian; greater than 100 µM in the assay with OVCAR-5 ovarian; 81.9 µM and > 100 µM with SF-539 CNS; greater than 100 µM in the assay on SK-MEL-2 melanoma; 57.9 µM and > 100 µM with SNB-75 CNS; greater than 100 µM with SW-620 colon. In the assay on UO-31 renal, the TGI is 77.6 µM and > 100 µM. In addition, the GI50 in the assay with OVCAR-4 ovarian is 29.3 µM and > 100 µM; in the assay with OVCAR-5 ovarian, greater than 100 µM; with SF-539 CNS, 31.3 µM and > 100 µM; with SNB-75 CNS it was 22.8 µM and 65.6 µM.

As for `COc1ccc(NC(=O)CC(=O)N2N=C(C)C(N=Nc3ccc(C(=O)O)cc3)C2=O)cc1` (stereo not drawn), the TGI in the assay on 786-0 renal, in the assay with CCRF-CEM leukemia, with DU-145 prostate, with HCC-2998 colon, in the assay with IGROV1 ovarian and in the assay with MCF7 breast was greater than 100 µM each time. Also, the TGI in the assay with OVCAR-4 ovarian, in the assay on OVCAR-5 ovarian, with SF-539 CNS, in the assay with SK-MEL-2 melanoma, in the assay on SNB-75 CNS and in the assay on SW-620 colon was greater than 100 µM each time. In the assay on UO-31 renal, this compound had a TGI greater than 100 µM.

As for `Cc1cc(=O)n2nc(CSc3n[nH]c(=S)s3)sc2n1`, the TGI in the assay with 786-0 renal, in the assay with CCRF-CEM leukemia, in the assay with DU-145 prostate, in the assay with HCC-2998 colon, in the assay with IGROV1 ovarian and in the assay on MCF7 breast was greater than 100 µM each time. Also, the TGI in the assay with OVCAR-4 ovarian, in the assay with OVCAR-5 ovarian, in the assay on SF-539 CNS, in the assay on SK-MEL-2 melanoma, in the assay with SNB-75 CNS and with SW-620 colon was greater than 100 µM throughout. The same compound gave a TGI in the assay on UO-31 renal greater than 100 µM.

Consider `FC(F)(F)C1(c2ccccc2)SCc2nc3ccccc3n21` (stereo not drawn), for which the TGI in the assay on 786-0 renal, in the assay on CCRF-CEM leukemia, in the assay with DU-145 prostate, in the assay on HCC-2998 colon, with IGROV1 ovarian and with MCF7 breast was greater than 100 µM throughout. Further, the TGI in the assay on OVCAR-4 ovarian, in the assay with OVCAR-5 ovarian, in the assay with SF-539 CNS, in the assay on SK-MEL-2 melanoma, with SNB-75 CNS and in the assay with SW-620 colon was greater than 100 µM each time. Further, the TGI in the assay on UO-31 renal is greater than 100 µM.

Turning to `O=C(Nc1nccs1)NS(=O)(=O)n1cnc2ccccc21`, the TGI with 786-0 renal, in the assay with CCRF-CEM leukemia, in the assay on DU-145 prostate, in the assay on HCC-2998 colon, with IGROV1 ovarian and in the assay on MCF7 breast was greater than 100 µM throughout. Further, the TGI in the assay with OVCAR-4 ovarian, in the assay with OVCAR-5 ovarian, with SF-539 CNS, with SK-MEL-2 melanoma, in the assay with SNB-75 CNS and with SW-620 colon was greater than 100 µM in each case. In the assay with UO-31 renal, this compound yielded a TGI greater than 100 µM.
